Source: patent US20260207702A1, “USE OF AVPR1A AGONISTS” (Viage Therapeutics Inc., priority 2022, published 2026)
Where a SMILES comes first, the peptide text is derived from it. Bridges are numbered along the chain shown (N, C = ends).

Tests used:
mouse [1] = assay: Tail suspension test (TST) with vasopressin receptor inhibitors (Example 1); assay type: in vivo
From the text: NO: 1) is either AVPR1A or AVPR2 (FIGS. 1-2).

mouse [2] = assay: Mouse tail suspension test with felypressin (Example 5); assay type: in vivo
Description: The effect of orally administered felypressin, a selective AVPR1A agonist, on antidepressant activity in the mouse tail suspension test was evaluated. Felypressin at 0.03 mg/kg, 0.1 mg/kg, and 0.3 mg/kg was compared to the peptide […] (SEQ ID NO: 1) at 0.3 mg/kg (n=6 per group). The effect of orally administered felypressin (0.1 mg/kg) was also compared to the effect of orally administered felypressin (0.1 mg/kg) plus the AVPR1A/AVPR2 inhibitor conivaptan (3 mg/kg) (n=7 per group).

healthy subjects = settings: in vivo
Description: A Phase 1a/1b, randomized, placebo-controlled, crossover study with the peptide [sequence] (SEQ ID NO: 1) in healthy subjects was performed. The study population included men and women in good general health.
A single ascending dose (SAD) group included four cohorts receiving 60 mg/day (cohorts SAD1 and SAD2), 180 mg/day (cohort SAD3), or 540 mg/day (cohort SAD4) of the peptide or placebo. […] All doses were administered orally. […] Seven days after the end of dosing, this group was then switched to receiving placebo once a day for seven days, followed by another 24-hour period of sleep deprivation. then crossing to 540 mg of peptide once a day for 7 days. In another group (n=7, with one participant withdrawing after initiation for personal reasons), the inverse dose regimen was used, with participants starting with placebo and the crossing over to 540 mg of peptide once a day.

mouse [3] = assay: Mouse tail suspension test with desmopressin (Example 6); assay type: in vivo; settings: oral desmopressin 0.03, 0.1, 0.3, 1.0 mg/kg vs felypressin 0.1 mg/kg
Description: Desmopressin at 0.03 mg/kg, 0.1 mg/kg, and 0.3 mg/kg was compared to felypressin at 0.1 mg/kg (n=6 per group) in a first study. Desmopressin at 0.1 mg/kg, 0.3 mg/kg, and 1.0 mg/kg was compared to felypressin at 0.1 mg/kg (n=6 per group) in a first study.

**Q.** COc1ccc(S(=O)(=O)N2C(=O)[C@@](c3ccccc3OC)(N3C[C@H](O)C[C@H]3C(=O)N(C)C)c3cc(Cl)ccc32)c(OC)c1 [nelivaptan] was tested. Which “Blocking of LSSTQAQQSY (SEQ ID NO: 1) activity in a tail suspension test (reduced TST immobility)” value (mouse [1]; mouse, in vivo) did it give?
**A.** blocks

**Q.** For Cc1ccccc1C(=O)Nc1ccc(C(=O)N2CCCC(O)c3cc(Cl)ccc32)c(C)c1 (centres unmarked) [tolvaptan], which “Blocking of LSSTQAQQSY (SEQ ID NO: 1) activity in a tail suspension test (reduced TST immobility)” value (mouse [1]; mouse, in vivo) is on record?
**A.** does not block

**Q.** NCCCC[C@H](NC(=O)[C@@H]1CCCN1C(=O)[C@@H]1CSSC[C@H](N)C(=O)N[C@@H](Cc2ccccc2)C(=O)N[C@@H](Cc2ccccc2)C(=O)N[C@@H](CCC(N)=O)C(=O)N[C@@H](CC(N)=O)C(=O)N1)C(=O)NCC(N)=O [felypressin] (H-CFFQNCPKG-NH2; disulfide 1-6) was tested. Which “Antidepressant activity in the mouse tail suspension test” value (mouse [2]; orally administered, 0.03, 0.1 and 0.3 mg/kg) did it give?
**A.** induces an antidepressant effect

**Q.** With CC(C)C[C@H](N)C(=O)N[C@@H](CO)C(=O)N[C@@H](CO)C(=O)N[C@H](C(=O)N[C@@H](CCC(N)=O)C(=O)N[C@@H](C)C(=O)N[C@@H](CCC(N)=O)C(=O)N[C@@H](CCC(N)=O)C(=O)N[C@@H](CO)C(=O)N[C@@H](Cc1ccc(O)cc1)C(=O)O)[C@@H](C)O [LSSTQAQQSY (SEQ ID NO: 1), LSSTQAQQSY] (H-LSSTQAQQSY-OH; N-terminus and C-terminus assumed) as the molecule, how does the “Vital signs, electrocardiography (ECG) data, and physical examinations” value (healthy subjects) read?
**A.** normal

**Q.** Cc1nc2c([nH]1)-c1ccccc1N(C(=O)c1ccc(NC(=O)c3ccccc3-c3ccccc3)cc1)CC2 [conivaptan] was tested. Which “Blocking of LSSTQAQQSY (SEQ ID NO: 1) activity in a tail suspension test (reduced TST immobility)” value (mouse [1]; low doses of inhibitor) did it give?
**A.** blocks

**Q.** What about the “Blocking of LSSTQAQQSY (SEQ ID NO: 1) activity in a tail suspension test (reduced TST immobility)” value (mouse [1]; mouse, in vivo) of the same molecule?
**A.** blocks

**Q.** And the “Blocking of felypressin activity in the tail suspension test” value (mouse [2]; oral felypressin 0.1 mg/kg plus conivaptan 3 mg/kg)?
**A.** blocks

**Q.** For NC(=O)CC[C@@H]1NC(=O)[C@H](Cc2ccccc2)NC(=O)[C@H](Cc2ccc(O)cc2)NC(=O)CCSSC[C@@H](C(=O)N2CCC[C@H]2C(=O)N[C@H](CCCN=C(N)N)C(=O)NCC(N)=O)NC(=O)[C@H](CC(N)=O)NC1=O [desmopressin, 1-desamino-8-D-arginyl vasopressin], which “Antidepressant activity in the mouse tail suspension test, compared to felypressin” value (mouse [3]) is on record?
**A.** less of an effect than felypressin
